Usually pIC50 stands for −log10 of the IC50, conventionally taken in molar units.

pIC50: −log10 of the molar value. Where two headings read alike, the source gives them in different places. Where no end group is shown, it is not given here.

The values below come from PMC4306314, “Differential neuroprotective potential of CRMP2 peptide aptamers conjugated to cationic, hydrophobic, and amphipathic cell penetrating peptides” (Frontiers in Cellular Neuroscience, 2015).

Data set [1] has as its system cortical neurons. Briefly: Glutamate-induced toxicity, chromogenic cell viability assay. To be noted: for Prevention of Glu/Gly-induced neuronal cell death by NMDAR subunit blockers: Ifenprodil 1 µM, Peaqx 5 µM, 10 min before and during 200 µM glutamate/20 µM glycine 30 min, 7 DIV, viability 24 h later, 32 wells. The class given is cell-based, rat. The protocol:
E19 neurons (grown in 96 well plates) were stimulated with 200 µM glutamate/20 µM glycine to induce neuronal death as previously described with modifications (Brittain et al., [2011a]). Neurons were pre-treated with peptides by removing half of the culture medium and replacing with fresh medium containing twice the final concentration of peptide. Neurons were then stimulated by removing half the medium and replacing with fresh medium containing 400 µM glutamate/40 µM glycine and 1X peptide concentration. Following a 30 min stimulation the medium was completely removed and replaced with half fresh/half conditioned medium. Cell viability was quantified 24 h later using the 3-(4,5-dimethylthiazol-2-yl)-5-(3-carboxymethoxyphenyl)-2-(4-sulfophenyl)-2H-tetrazolium cell viability assay (Promega, Madison, WI, USA) as previously described (Brittain et al., [2011a]). Subunit-specific NMDAR antagonists Peaqx (NR2A) and Ifenprodil (NR2B) were purchased from Sigma.

The conditions of data set [2]: of the CPP itself; ref Sarko et al., 2010; cited from earlier work.
Details of data set [3]: method as in Wender et al., 2000. To be noted: ref Wender et al., 2000; cited from earlier work.
The next data set addresses T1, CRMP2-NR2B interaction (Rattus norvegicus, UniProt Q00960).
T1 construct: Rat brains were lysed into the immunoprecipitation buffer; from tissue; host or cells: rat brain
Briefly: Co-immunoprecipitation of NR2B with CRMP2 from rat brain lysates. To be noted: 10 µM peptide, overnight 4°C, rat brain lysate, immunoblot, n = 4. The class given is binding. The method, then: Rat brains were lysed into the immunoprecipitation buffer containing 20 mM Tris-HCl pH 7.4, 50 mM NaCl, 2 mM MgCl2, 1% (vol/vol) NP40, 0.5% (mass/vol) sodium deoxycholate with Protease/phosphatase inhibitors cocktails (Calbiochem) and Benzonase (50 U/mL^−1), using a dounce homogenizer. The lysates were clarified by centrifugation at 10000 g, 10 min, 4°C then total protein concentration was determined by BCA protein assay (Cat# PI23225, Thermo scientific). For the co-immunoprecipitation, 300 µg of total protein was incubated with 1 µg of CRMP2 antibody (Cat# C2993, Sigma, St. Louis, MO, USA) of non-specific rabbit IgG, in the presence of 10 µM of the indicated peptides and incubated overnight at 4°C under gentle agitation. Protein G magnetic beads (Cat# 10004D, Life Technologies) pre-equilibrated with the immunoprecipitation buffer, were added to the mixture and allowed to incubate for 1 h at 4°C to capture the immuno-complexes. The beads were washed four times with the immunoprecipitation buffer before re-suspension in Laemmli buffer and boiling at 95°C for 5 min prior to immunoblotting.
Indicated samples were loaded on 4–12% NuPAGE® gels (Life Technologies). […] Films were scanned, and quantified using Un-Scan-It gel version 6.1 scanning software (Silk Scientific Inc, Orem, UT, USA).

Data set [4] relates to GPMVs derived from cortical neurons. The experiment in a line: Peptide penetration into giant plasma membrane vesicles (GPMVs), di-4-ANEPPDHQ staining. It is filed as in vitro ADME, rat. The conditions noted are these: 10 µM peptide; for Change in percent of GPMVs with intracellular staining, vesicles from Glu/Gly-challenged vs unchallenged cells: neurons challenged 1 h with 200 µM glutamate + 20 µM glycine before vesiculation. The method, then: Giant plasma membrane vesicles (GPMVs) were obtained as previously described in Sezgin et al. ([2012]). Briefly, GPMVs were generated from cortical neurons incubated at 37°C for 90 min in a vesiculation buffer containing 10 mM HEPES, 150 mM NaCl, 2 mM CaCl2, pH 7.4 containing 2 mM N-ethyl maleimide (NEM). After GPMV formation, the buffer containing vesicles was recovered and conserved at 4°C for at least 2 h to allow the vesicles to concentrate at the bottom of the tube. As the GPMVs were stable for ~48 h (data not shown), they were used the day after formation at the latest.
All experiments for microscopic analyses of GPMVs were performed on 35 mm glass bottom dishes pre-coated with BSA (1 mg/mL for 1 h at room temperature). Approximately 100 µL of GMPVs labeled with 5 µM di-4-ANEPPDHQ were incubated for 3 h at room temperature with 10 µM of CBD3 peptide aptamers. di-4-ANEPPDHQ, a styryl dye that was originally developed to detect transmembrane potential changes, is considered to be a good probe for rafts (Jin et al., [2005]) and was used to label GPMVs. di-4-ANEPPDHQ is able to partition into both liquid-ordered and liquid-disordered phase domains in model membranes, reacts to the environmental difference between the two phases via conformational changes, thus resulting in different fluorescence properties (Jin et al., [2005]). Here, we studied the 500–550 nm emission of the probe, which accounts largely for the liquid ordered phase.
Fluorescence imaging was performed with an inverted microscope, Nikon Eclipse TE2000-U, using objective Nikon Super Fluor 20× 0.75 NA and a Photometrics cooled CCD camera CoolSNAPHQ-ES2 (Roper Scientific, Tucson, AZ, USA) controlled by MetaFluor 6.3 software (Molecular Devices, Downingtown, PA, USA). […] Twenty images of each condition were systematically recorded randomly, using a FITC filter (excitation and emission wavelength 488 nm and 500–550 nm, respectively), which accounted for the liquid ordered contribution of di-4-ANEPPDHQ or the localization of FITC-peptides.

For data set [5], the system named is cortical neurons. The experiment in a line: Uptake and efflux of FITC-labeled CBD3 peptides from cortical neurons. It is filed as in vitro ADME, rat. To be noted: for Cumulative efflux (AUC), glutamate-challenged vs unchallenged cells, long-term application: chronic peptide treatment, media sampled up to 3 h. The method, then: Cortical neurons were seeded into 96-well plates at 3.5 × 10^4 cells per well and cultured until 7 DIV at 37°C and 5% CO2. […] After four washes with phenol red free Leibovitz medium, the FITC fluorescence in the cells was measured using a Synergy 2 fluorescent plate reader (Biotek, Winooski, VT, USA) at an excitation wavelength of 485 nm and emission wavelength of 530 nm. […] To correct for any differences in cell plating, at the end of the experiment cortical neurons were lysed with 20 mM Tris, pH 7.4, 50 mM NaCl, 1% NP40, 0.5% sodium deoxycholate, 0.1% SDS Protease inhibitor cocktail set III (Calbiochem), phosphatase inhibitor cocktail set I (Calbiochem), 50 U/ml benzonase (Merck) and the protein quantity determined with a Pierce assay.

T1 sequence (Q00960 27-1482, other chains not shown): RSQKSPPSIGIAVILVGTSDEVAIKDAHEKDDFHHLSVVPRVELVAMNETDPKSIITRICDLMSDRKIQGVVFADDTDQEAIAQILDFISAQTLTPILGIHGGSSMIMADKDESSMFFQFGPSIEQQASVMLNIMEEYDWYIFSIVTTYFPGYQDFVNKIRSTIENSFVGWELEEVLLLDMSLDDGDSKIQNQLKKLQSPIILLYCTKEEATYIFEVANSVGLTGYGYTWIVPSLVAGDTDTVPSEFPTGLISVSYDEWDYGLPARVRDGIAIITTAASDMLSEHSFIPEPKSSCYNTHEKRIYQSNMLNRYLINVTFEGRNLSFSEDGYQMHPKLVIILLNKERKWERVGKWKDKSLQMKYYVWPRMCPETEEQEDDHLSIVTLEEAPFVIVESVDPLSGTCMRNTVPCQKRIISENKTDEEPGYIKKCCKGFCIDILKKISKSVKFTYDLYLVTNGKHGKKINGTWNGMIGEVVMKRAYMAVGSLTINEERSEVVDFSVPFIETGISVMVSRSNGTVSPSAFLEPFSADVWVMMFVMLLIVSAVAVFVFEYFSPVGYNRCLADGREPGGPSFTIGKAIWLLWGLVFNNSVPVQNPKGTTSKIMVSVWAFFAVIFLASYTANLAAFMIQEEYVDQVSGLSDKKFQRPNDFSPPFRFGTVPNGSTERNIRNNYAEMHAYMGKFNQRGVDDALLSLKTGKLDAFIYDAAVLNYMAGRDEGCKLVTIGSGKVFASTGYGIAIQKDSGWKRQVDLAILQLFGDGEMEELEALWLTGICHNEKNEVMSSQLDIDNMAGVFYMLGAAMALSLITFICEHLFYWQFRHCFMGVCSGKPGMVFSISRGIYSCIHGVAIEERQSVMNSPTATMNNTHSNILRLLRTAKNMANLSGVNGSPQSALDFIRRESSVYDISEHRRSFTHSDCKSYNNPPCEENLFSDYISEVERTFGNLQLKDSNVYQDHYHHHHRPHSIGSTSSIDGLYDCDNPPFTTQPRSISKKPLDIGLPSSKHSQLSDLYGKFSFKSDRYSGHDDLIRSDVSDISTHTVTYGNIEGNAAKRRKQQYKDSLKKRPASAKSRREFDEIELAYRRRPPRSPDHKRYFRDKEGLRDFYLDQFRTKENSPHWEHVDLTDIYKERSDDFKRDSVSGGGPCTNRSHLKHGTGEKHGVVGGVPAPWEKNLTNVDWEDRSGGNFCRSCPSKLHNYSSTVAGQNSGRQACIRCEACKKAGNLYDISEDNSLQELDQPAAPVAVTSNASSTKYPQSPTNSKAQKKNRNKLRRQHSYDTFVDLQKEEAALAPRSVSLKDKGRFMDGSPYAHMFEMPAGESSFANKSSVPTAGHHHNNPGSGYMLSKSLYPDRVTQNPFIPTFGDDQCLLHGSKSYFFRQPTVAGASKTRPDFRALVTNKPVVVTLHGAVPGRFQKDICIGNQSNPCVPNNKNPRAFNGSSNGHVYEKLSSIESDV

As to `CC(C(O)c1ccc(O)cc1)N1CCC(Cc2ccccc2)CC1` (centres unmarked) [Ifenprodil, reference compound], in the data set with cortical neurons [1], the “Prevention of Glu/Gly-induced neuronal cell death by NMDAR subunit blockers” value is on record as “completely prevent”.

With `C[C@H](NC(c1cccc2[nH]c(=O)c(=O)[nH]c12)P(=O)(O)O)c1ccc(Br)cc1` (some centres unmarked) [Peaqx, reference compound], the “Prevention of Glu/Gly-induced neuronal cell death by NMDAR subunit blockers” value with cortical neurons [1] is reported as “not”.

With YGRKKRRQRRR [TAT], in data set [2], the “Half-life (t1/2)” value is ~ 9 h.

Consider “RRRRRRRRR [R9, nona-arginine, cationic cell penetrating peptide]”, for which the “Half-life (t1/2)” value in data set [2] is given as ~ 2 h. Also, the “Penetration compared to TAT” value in data set [3] is “greater than 20 fold”.

In turn, RRRRRRRRRARSRLAELRGVPRGL [R9-CBD3] showed a pIC50 with cortical neurons [1] (24 h) of approximately 6.25. The “Inhibition of NR2B-CRMP2 interaction relative to no peptide control” value at CRMP2-NR2B interaction is ~ 80%.

As to KLALKLALKALKAALKLA [MAP], the “Half-life (t1/2)” value in data set [2] was more than 72 h.

As to YGRKKRRQRRRARSRLAELRGVPRGL [TAT-CBD3], in the data set on cortical neurons [1] (concentration-response viability curve, four-parameter fit, variable Hill slope, 32 wells from two experiments, extrapolated, read-out: IC50 for inhibition of glutamate-mediated toxicity), the negative-log IC50 (pIC50) is 5.49. For the same compound, the “Percent of GPMVs exhibiting lumenal accumulation of smaller vesicles” value in data set [4] (GPMVs from control (untreated) cortical neurons, 5 µM di-4-ANEPPDHQ, room temperature, 3 h (methods) or 60 min, fluorescence microscopy, n = 2 experiments) is ~ 54%. Further, in data set [4], the “Change in percent of GPMVs with intracellular staining, vesicles from Glu/Gly-challenged vs unchallenged cells” value is “did not alter”. In the data set on cortical neurons [5] (1, 2 and 3 h post peptide application, irrespective of excitotoxic challenge), the “Efflux fluorescence compared to MTS-CBD3-treated cells, long-term application” value is on record as “lower”. Besides, in the data set on cortical neurons [5], the “Cumulative efflux (AUC), glutamate-challenged vs unchallenged cells, long-term application” value is on record as “indistinguishable”.

Consider AAVALLPAVLLALLAP [MTS], for which the “Half-life (t1/2)” value in data set [2] was ~ 48 h.

Consider “AAVALLPAVLLALLAPARSRLAELRGVPRGL [MTS-CBD3]”, for which the “Change in percent of GPMVs with intracellular staining, vesicles from Glu/Gly-challenged vs unchallenged cells” value in data set [4] is “did not alter”. The “Cumulative efflux (AUC), glutamate-challenged vs unchallenged cells, long-term application” value in the data set on cortical neurons [5] was ~ 24%.

With “KLALKLALKALKAALKLAARSRLAELRGVPRGL [MAP-CBD3]”, at CRMP2-NR2B interaction, the “Inhibition of NR2B-CRMP2 interaction relative to no peptide control” value is listed as ~ 60%.
